Results as given in PubChem BioAssay (NCI).
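Compound exposure: 48 hours, 5 concentrations, 96-well plates. TGI: concentration producing complete growth inhibition.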

How the values were obtained:
Assay in all cases: NCI tumour cell line growth inhibition, 48 h
OVCAR-8 ovarian = system: OVCAR-8 ovarian
CCRF-CEM leukemia = system: CCRF-CEM leukemia
A549 NSCLC = system: A549 NSCLC
MDA-MB-435 = system: MDA-MB-435
MALME-3M melanoma = system: MALME-3M melanoma
UACC-62 melanoma = system: UACC-62 melanoma
UACC-257 melanoma = system: UACC-257 melanoma
LOX IMVI melanoma = system: LOX IMVI melanoma
NCI/ADR-RES ovarian = system: NCI/ADR-RES ovarian
SR leukemia = system: SR leukemia

Compound	TGI (OVCAR-8 ovarian)	TGI (CCRF-CEM leukemia)	TGI (A549 NSCLC)	TGI (MDA-MB-435)	TGI (MALME-3M melanoma)	TGI (UACC-62 melanoma)	TGI (UACC-257 melanoma)	TGI (LOX IMVI melanoma)	TGI (NCI/ADR-RES ovarian)	TGI (SR leukemia)
COc1cc(CCNC2=CC(=O)c3nc[nH]c3C2=O)ccc1O	47.6 µM	> 100 µM	68.3 µM	31.4 µM	26.1 µM	36.8 µM	34.8 µM	45.7 µM	> 100 µM	98.4 µM
N#Cc1nc(CCc2nc(C#N)c(N)o2)oc1N	> 10 µM	> 10 µM	> 10 µM	> 10 µM	> 10 µM	> 10 µM	> 10 µM	> 10 µM	> 10 µM	> 10 µM
CN(CCCCCl)P(=O)(OCc1ccc([N+](=O)[O-])o1)OCC1OC(n2ccc(N)nc2=O)C(O)C1O (configuration not stated)	> 100 µM	–	2.61 µM	8.21 µM	8.36 µM	40.6 µM	30.2 µM	20.5 µM	> 100 µM	43.9 µM
CCN(CC)C(=S)SC(C(=O)Nc1nnc(-c2ccc(Cl)cc2)o1)c1ccccc1 (configuration not stated)	> 100 µM	9.82 µM	52.1 µM	36 µM	32.7 µM	23.6 µM	> 100 µM	40.2 µM	30.5 µM	38.3 µM
CC(C)(CO[C@H]1C[C@H]2CC[C@@]1(C)C2(C)C)[N+](=O)[O-]	56.8 µM	> 100 µM	> 100 µM	34 µM	40.3 µM	41.7 µM	36.9 µM	35.1 µM	90.3 µM	42.3 µM
COc1cccc2c1C(=O)c1c(O)c3c(c(O)c1C2=O)C[C@@](O)(C(C)=O)CC3OC1CC(OC2CC(N)C(O)C(C)O2)C(O)C(C)O1 (some centres not stated)	> 100 µM	44 µM	> 100 µM	> 100 µM	> 100 µM	> 100 µM	> 100 µM	> 100 µM	> 100 µM	> 70 µM
N[C@@H](CCC(=O)NC(Cc1ccccc1)C(=O)NCP(=O)(O)O)C(=O)O (some centres not stated)	> 100 µM	–	> 100 µM	> 100 µM	> 100 µM	> 100 µM	> 100 µM	> 100 µM	> 100 µM	> 100 µM
Clc1ccc2c(c1)N(CCCN1CCCC13CCCCC3)c1ccccc1S2	42.6 µM	28.3 µM	40.2 µM	27.4 µM	28.1 µM	31.1 µM	24.4 µM	26.5 µM	44.5 µM	17.5 µM
Nc1c(C(=O)c2ccc(Cl)c(Cl)c2)[nH]c(NCc2ccccc2)c1C(=S)Nc1ccccc1	30.2 µM	–	23.3 µM	18.3 µM	11.7 µM	29.2 µM	30.5 µM	4.53 µM	4.72 µM	> 100 µM
CC(=O)NC1C(OCc2ccccc2)OC(CO)C(O)C1OC(C)C(=O)N[C@@H](C)C(=O)N[C@H](CCC(=O)NCCNCCNc1c2ccccc2nc2cccc([N+](=O)[O-])c12)C(N)=O (some centres not stated)	0.457 µM	> 100 µM	1.71 µM	0.235 µM	0.221 µM	0.199 µM	0.753 µM	0.534 µM	10.6 µM	> 71.4 µM
